Reference: patent publication US12215112B2, “CD151 inhibitors” (ESFAM BIOTECH PTY LTD, priority 2020, dated 2025)

Each compound was assayed on PC3 cells (assay: xCELLigence RTCA real-time cell invasion assay (CIM plate, Matrigel) on PC3 prostate cancer cells). Details: Homo sapiens, PC-3, compound 25 uM to 1 uM, cell index monitored for 72 hours, four-parameter dose-response curve, read-out: IC50, Effect of compounds on the invention on prostate cancer cells.
Type: cell-based
Description: The media antibiotics and serum were purchased from Invitrogen (Life Technologies). PC3 cells were purchased from ATCC (Granville, NSW, Australia). PC3 cells were expanded in cell culture T75 flasks with vented cap and then preserved in low passage number. The medium used for PC3 cells was RPMI (GlutaMAX) supplemented with 10% FCS and 1% penicillin/streptomycin (culture media). The cells were maintained at 37° C. in a humidified 95% (v/v) air/5% (v/v) CO2 environment and were grown up to 80% confluence.
XCELLigence® real-time cell analysis (RTCA) instrument (ACEA Biosciences), 16-well ACEA CIM-Plates, 16-well ACEA E-Plat and assembly tool were purchased from ELITechGroup empowering IVD (Braeside, Australia). The Matrigel was purchased from Corning (Australia).
To measure cell invasion under compound treatment the upper chamber of the CIM plate was coated with 5% Matrigel diluted in SF RPMI (20 μl) and incubated in a 37° C. tissue culture incubator for four hours. Using the assembly tool to support the chambers the lower chamber was filled with (160 μl) of culture media containing the compound in specific concertation from 25 uM to 1 uM and two controls (DMSO 0.1% and ESFAM 4C 10 uM) (see the schematic in FIG. 1). Once the upper chamber was placed on the top of the lower chamber it was loaded with (40 μl) serum-free (SF) RPMI containing the compound as previously stated. After one hour calibration in 37° C., plates were placed into the xCELLigence station, and the base-line electric impedance was measured to confirm that all wells and connections were working properly. In case of connection problem, the software automatically informs the researcher about the nature of the problem in the message section. Subsequently cells were trypsinized and upon harvesting and counting they were diluted in SF RPMI to desired density (3×10^4) and seeded (100 μl) in the wells. After 30 minutes of incubation in room-temperature to allow cell attachment the plates were loaded in the xCELLigence RTCA DP machine. The cell invasion was monitored in real-time for the duration of 72 hours. […]
The xCELLigence system automatically monitored the electrical impedance value of each well and expressed as a cell index (CI) value for the duration of 72 hours. The data for treatments was automatically grouped as the mean±standard deviation. The software version used in these experiments is 1.2.1. The electronic record of the experimental data is automatically saved in file that cannot be altered or changed by the researcher.
Statistical analysis was performed using Microsoft® Office EXCEL and GraphPad Prism 7. The IC50 was calculated from the four-parameter dose-response curve (log(inhibitor) vs. response-variable slopes). Where the row-data was inserted in GraphPad Prism 7 (Dose response x-log(dose)) and analysed for XY nonlinear regression (curve fit), dose response-inhibition, log(inhibitor) vs response variable slope (four parameters). For the IC90 calculation the log(IC50)=log(IC90)-(1/HillSlope)*log(9) equation was used in EXCEL based on the raw data extracted from xCELLigence system and the dose-response curve.
An IC50 of 9.86 µM was found for `CN(Cc1ccc(C(F)(F)F)cc1)c1cc(-c2cn[nH]c2)n2nc(C(=O)Nc3ccc(Cl)cc3)cc2n1` [Compound 41, N-(4-chlorophenyl)-5-(methyl(4-(trifluoromethyl)benzyl)amino)-7-(1H-pyrazol-4-yl)pyrazolo[1,5-a]pyrimidine-2-carboxamide] in this work. An IC50 of 1.02 µM was found for `CC(C)c1c(C(=O)Nc2ccc(OC3CCOCC3)cc2)nn2c(-c3cn[nH]c3)cc(N3Cc4ccc(F)cc4C3)nc12` [Compound 123, 5-(5-fluoroisoindolin-2-yl)-3-isopropyl-7-(1H-pyrazol-4-yl)-N-(4-((tetrahydro-2H-pyran-4-yl)oxy)phenyl)pyrazolo[1,5-a]pyrimidine-2-carboxamide] in this work. An IC50 of 16.9 µM was found for `CN(Cc1ccccc1)c1cc(-c2cn[nH]c2)n2nc(C(N)=O)cc2n1` [Compound 2, 5-(benzyl(methyl)amino)-7-(1H-pyrazol-4-yl)pyrazolo[1,5-a]pyrimidine-2-carboxamide] in this work. An IC50 of 4.71 µM was found for `CN(Cc1ccccc1)c1cc(-c2cn[nH]c2)n2nc(C(=O)Nc3cccc(C#N)c3)cc2n1` [Compound 13, 5-(benzyl(methyl)amino)-N-(3-cyanophenyl)-7-(1H-pyrazol-4-yl)pyrazolo[1,5-a]pyrimidine-2-carboxamide] in this work. An IC50 of 3.15 µM was found for `CC(C)c1c(C(=O)Nc2cccc(O)c2)nn2c(-c3cn[nH]c3)cc(N3Cc4ccccc4C3)nc12` [Compound 71, N-(3-hydroxyphenyl)-5-(isoindolin-2-yl)-3-isopropyl-7-(1H-pyrazol-4-yl)pyrazolo[1,5-a]pyrimidine-2-carboxamide] in this work. An IC50 of 9.59 µM was found for `O=C(Nc1cccc(O)c1)c1cc2nc(N3Cc4ccc(F)cc4C3)cc(-c3cn[nH]c3)n2n1` [Compound 64, 5-(5-fluoroisoindolin-2-yl)-N-(3-hydroxyphenyl)-7-(1H-pyrazol-4-yl)pyrazolo[1,5-a]pyrimidine-2-carboxamide] in this work. An IC50 of 5.85 µM was found for `CC(=O)N1CCN(c2cccc(NC(=O)c3cc4nc(N5Cc6ccccc6C5)cc(-c5cn[nH]c5)n4n3)c2)CC1` [Compound 49, N-(3-(4-acetylpiperazin-1-yl)phenyl)-5-(isoindolin-2-yl)-7-(1H-pyrazol-4-yl)pyrazolo[1,5-a]pyrimidine-2-carboxamide] in this work. An IC50 of 6.64 µM was found for `CN(Cc1ccccc1)c1cc(-c2cn[nH]c2)n2nc(C(=O)Nc3ccc(C#N)cc3)cc2n1` [Compound 12, 5-(benzyl(methyl)amino)-N-(4-cyanophenyl)-7-(1H-pyrazol-4-yl)pyrazolo[1,5-a]pyrimidine-2-carboxamide] in this work. An IC50 of 5.87 µM was found for `Cc1c(C(=O)Nc2cccc(OC(F)(F)F)c2)nn2c(-c3cn[nH]c3)cc(N(C)Cc3ccccc3)nc12` [Compound 70, 5-(benzyl(methyl)amino)-3-methyl-7-(1H-pyrazol-4-yl)-N-(3-(trifluoromethoxy)phenyl)pyrazolo[1,5-a]pyrimidine-2-carboxamide] in this work. An IC50 of 2.59 µM was found for `COc1cccc(NC(=O)c2cc3nc(N4Cc5ccccc5C4)cc(-c4cnn(C)c4)n3n2)c1` [Compound 57, 5-(isoindolin-2-yl)-N-(3-methoxyphenyl)-7-(1-methyl-1H-pyrazol-4-yl)pyrazolo[1,5-a]pyrimidine-2-carboxamide] in this work. An IC50 of 12.5 µM was found for `O=C(Nc1cccc(Cl)c1)c1nn2c(-c3cn[nH]c3)cc(N3Cc4ccccc4C3)nc2c1C1CC1` [Compound 98, N-(3-chlorophenyl)-3-cyclopropyl-5-(isoindolin-2-yl)-7-(1H-pyrazol-4-yl)pyrazolo[1,5-a]pyrimidine-2-carboxamide] in this work. An IC50 of 7.62 µM was found for `COc1cccc(NC(=O)c2nn3c(-c4cn[nH]c4)cc(N4Cc5cccc(F)c5C4)nc3c2C(C)C)c1` [Compound 125, 5-(4-fluoroisoindolin-2-yl)-3-isopropyl-N-(3-methoxyphenyl)-7-(1H-pyrazol-4-yl)pyrazolo[1,5-a]pyrimidine-2-carboxamide] in this work. An IC50 of 12.8 µM was found for `CN(Cc1ccccc1)c1cc(-c2cn[nH]c2)n2nc(C(=O)Nc3cccc(OC(F)F)c3)cc2n1` [Compound 19, 5-(benzyl(methyl)amino)-N-(3-(difluoromethoxy)phenyl)-7-(1H-pyrazol-4-yl)pyrazolo[1,5-a]pyrimidine-2-carboxamide] in this work. An IC50 of 2.91 µM was found for `COc1cccc(NC(=O)c2nn3c(-c4cn[nH]c4)cc(N4Cc5ccccc5C4)nc3c2C(C)C)c1` [Compound 72, 5-(isoindolin-2-yl)-3-isopropyl-N-(3-methoxyphenyl)-7-(1H-pyrazol-4-yl)pyrazolo[1,5-a]pyrimidine-2-carboxamide] in this work. An IC50 of 2.89 µM was found for `CC(C)c1c(C(=O)Nc2ccc3cn[nH]c3c2)nn2c(-c3cn[nH]c3)cc(N3Cc4ccc(F)cc4C3)nc12` [Compound 104, 5-(5-fluoroisoindolin-2-yl)-N-(1H-indazol-6-yl)-3-isopropyl-7-(1H-pyrazol-4-yl)pyrazolo[1,5-a]pyrimidine-2-carboxamide] in this work. An IC50 of 1.47 µM was found for `CN(Cc1ccccc1)c1cc(-c2cn[nH]c2)n2nc(C(=O)Nc3cccc(F)c3)cc2n1` [Compound 36, 5-(benzyl(methyl)amino)-N-(3-fluorophenyl)-7-(1H-pyrazol-4-yl)pyrazolo[1,5-a]pyrimidine-2-carboxamide] in this work. An IC50 of 7.95 µM was found for `CC(C)Oc1cccc(NC(=O)c2cc3nc(N(C)Cc4ccccc4)cc(-c4cn[nH]c4)n3n2)c1` [Compound 18, 5-(benzyl(methyl)amino)-N-(3-isopropoxyphenyl)-7-(1H-pyrazol-4-yl)pyrazolo[1,5-a]pyrimidine-2-carboxamide] in this work. An IC50 of 7.39 µM was found for `Cc1nn(C)c(C)c1-c1cc(N2Cc3ccccc3C2)nc2cc(C(=O)Nc3cccc(O)c3)nn12` [Compound 60, N-(3-hydroxyphenyl)-5-(isoindolin-2-yl)-7-(1,3,5-trimethyl-1H-pyrazol-4-yl)pyrazolo[1,5-a]pyrimidine-2-carboxamide] in this work. An IC50 of 3.1 µM was found for `CN(Cc1ccccc1)c1cc(-c2cn[nH]c2)n2nc(C(=O)Nc3ccccc3F)cc2n1` [Compound 37, 5-(benzyl(methyl)amino)-N-(2-fluorophenyl)-7-(1H-pyrazol-4-yl)pyrazolo[1,5-a]pyrimidine-2-carboxamide] in this work. An IC50 of 5.22 µM was found for `O=C(Nc1cccc(O)c1)c1cc2nc(N3Cc4ccc(Cl)cc4C3)cc(-c3cn[nH]c3)n2n1` [Compound 62, 5-(5-chloroisoindolin-2-yl)-N-(3-hydroxyphenyl)-7-(1H-pyrazol-4-yl)pyrazolo[1,5-a]pyrimidine-2-carboxamide] in this work. An IC50 of 2.43 µM was found for `COc1cccc(NC(=O)c2cc3nc(N4Cc5ccccc5C4)cc(-c4cn[nH]c4)n3n2)c1` [Compound 25, 5-(isoindolin-2-yl)-N-(3-methoxyphenyl)-7-(1H-pyrazol-4-yl)pyrazolo[1,5-a]pyrimidine-2-carboxamide] in this work. An IC50 of 3.56 µM was found for `CN(C)c1cccc(NC(=O)c2cc3nc(N(C)Cc4ccccc4)cc(-c4cn[nH]c4)n3n2)c1` [Compound 20, 5-(benzyl(methyl)amino)-N-(3-(dimethylamino)phenyl)-7-(1H-pyrazol-4-yl)pyrazolo[1,5-a]pyrimidine-2-carboxamide] in this work. An IC50 of 1.2 µM was found for `COc1cccc(NC(=O)c2cc3nc(N(C)Cc4ccccc4)cc(-c4cn[nH]c4)n3n2)c1` [Compound 5, 5-(benzyl(methyl)amino)-N-(3-methoxyphenyl)-7-(1H-pyrazol-4-yl)pyrazolo[1,5-a]pyrimidine-2-carboxamide] in this work. An IC50 of 5.2 µM was found for `COc1cc(NC(=O)c2cc3nc(N(C)Cc4ccccc4)cc(-c4cn[nH]c4)n3n2)ccn1` [Compound 8, 5-(benzyl(methyl)amino)-N-(2-methoxypyridin-4-yl)-7-(1H-pyrazol-4-yl)pyrazolo[1,5-a]pyrimidine-2-carboxamide] in this work. An IC50 of 1.61 µM was found for `CN(Cc1ccccc1)c1cc(-c2cn[nH]c2)n2nc(C(=O)Nc3cccc(Cl)c3)cc2n1` [Compound 30, 5-(benzyl(methyl)amino)-N-(3-chlorophenyl)-7-(1H-pyrazol-4-yl)pyrazolo[1,5-a]pyrimidine-2-carboxamide] in this work. An IC50 of 7.86 µM was found for `CCOc1ccc(NC(=O)c2cc3nc(N4Cc5ccccc5C4)cc(-c4cn[nH]c4)n3n2)cc1` [Compound 55, N-(4-ethoxyphenyl)-5-(isoindolin-2-yl)-7-(1H-pyrazol-4-yl)pyrazolo[1,5-a]pyrimidine-2-carboxamide] in this work.
